According to EPA's ToxRefDB 2:

Tests used:
[1] = system: primate; conditions: Sub-acute repeat dose toxicity, Oral, Gavage/Intubation, dose end: 28 day, group: systemic
[2] = system: rat; conditions: Sub-acute repeat dose toxicity; Oral; Gavage/Intubation; dose end: 10 day; group: systemic; systemic / hematology / erythrocyte (rbc) count differential / erythrocyte (rbc) + systemic / hematology / hematocrit (hct) / hematocrit (…
[3] = system: rat; conditions: Sub-acute repeat dose toxicity, Oral, Gavage/Intubation, dose end: 34 day, group: systemic
[4] = system: rabbit; conditions: Sub-acute repeat dose toxicity; Oral; Gavage/Intubation; dose end: 4 day; group: systemic; systemic / hematology / erythrocyte (rbc) count differential / erythrocyte (rbc) + systemic / hematology / hematocrit (hct) / hematocrit (…
[5] = system: primate; conditions: Sub-acute repeat dose toxicity; Oral; Gavage/Intubation; dose end: 10 day; group: systemic; systemic / clinical chemistry / [other] / [other] + systemic / clinical chemistry / apolipoprotein a1 / apolipoprotein a1 + systemic / …
[6] = system: mouse; conditions: Carcinogenicity; b6c3f1; Oral; Feed; dose end: 105 week; group: systemic; systemic / in life observation / body weight / body weight + systemic / pathology microscopic / kidney / mineralization + systemic / …
[7] = system: rat; conditions: Carcinogenicity, fischer, Oral, Feed, dose end: 105 week, group: systemic
[8] = system: mouse; conditions: Subchronic oral toxicity in rodents, b6c3f1, Feed, dose end: 14 week, group: systemic
[9] = system: dog; conditions: Chronic toxicity, beagle, Oral, Feed, dose end: 1 year, group: systemic
[10] = system: mouse; conditions: Carcinogenicity, b6c3f1, Oral, Feed, dose end: 24 month, group: systemic
[11] = system: mouse; conditions: Subchronic oral toxicity in rodents, b6c3f1, Feed, dose end: 13 week, group: systemic
[12] = system: rat; conditions: Combined chronic toxicity/carcinogenicity; fischer; Oral; Feed; dose end: 2 year; group: systemic; systemic / pathology microscopic / kidney / dilatation + systemic / pathology microscopic / kidney / hyperplasia + systemic / pathology …
[13] = system: rat; conditions: Subchronic oral toxicity in rodents, fischer, Feed, dose end: 13 week, group: systemic
[14] = system: rat; conditions: Prenatal developmental toxicity study, sprague dawley, Oral, Gavage/Intubation, dose end: 15 GD
[15] = system: rat; conditions: Subchronic oral toxicity in rodents, sprague dawley, Feed, dose end: 90 day, group: systemic, systemic / clinical chemistry / cholesterol / cholesterol + systemic / in life observation / body weight / body weight + systemic / in life …
[16] = system: rabbit; conditions: Prenatal developmental toxicity study, new zealand white, Oral, Gavage/Intubation, dose end: 28 GD
[17] = system: rat; conditions: Multigenerational reproductive toxicity study, sprague dawley, Oral, Feed, dose end: 2 generation
[18] = system: dog; conditions: Subchronic oral toxicity in nonrodent, beagle, Feed, dose end: 103 day, group: systemic
[19] = system: dog; conditions: Subchronic oral toxicity in nonrodent, beagle, Capsule, dose end: 90 day, group: systemic
[20] = system: rat; conditions: Subchronic oral toxicity in rodents, sprague dawley, Feed, dose end: 3 month, group: systemic
[21] = system: rat; conditions: Combined chronic toxicity/carcinogenicity, sprague dawley, Oral, Feed, dose end: 104 week, group: systemic
[22] = system: mouse; conditions: Carcinogenicity, cd1, Oral, Feed, dose end: 78 week, group: systemic
[23] = system: rat; conditions: Prenatal developmental toxicity study, other, Oral, Gavage/Intubation, dose end: 15 GD
[24] = system: rat; conditions: Multigenerational reproductive toxicity study, sprague dawley, Oral, Feed, dose end: 2 generation; remark: listed apart in the source
[25] = system: dog; conditions: Chronic toxicity, beagle, Oral, Capsule, dose end: 52 week, group: systemic
[26] = systemic / in life observation / clinical signs / pulse/pressure + systemic / clinical chemistry / albumin / albumin + systemic / hematology…
[27] = systemic / in life observation / clinical signs / pulse/pressure + systemic / in life observation / clinical signs / arrhythmia + systemic…
[28] = systemic / clinical chemistry / [other] / [other] + systemic / clinical chemistry / globulins / globulins + systemic / clinical chemistry / …
[29] = systemic / in life observation / body weight / body weight + systemic / clinical chemistry / [other] / [other] + systemic / clinical …
[30] = systemic / pathology microscopic / kidney / hyperplasia + systemic / pathology microscopic / liver / hyperplasia + systemic / pathology …
[31] = systemic / organ weight / liver / absolute + systemic / organ weight / liver / relative to body weight + systemic / pathology microscopic / …
[32] = systemic / clinical chemistry / alkaline phosphatase (alp/alk) / alkaline phosphatase (alp/alk) + systemic / pathology microscopic / kidney…
[33] = systemic / organ weight / heart / relative to body weight + systemic / organ weight / kidney / absolute + systemic / organ weight / kidney…
[34] = systemic / organ weight / brain / relative to body weight + systemic / organ weight / kidney / absolute
[35] = systemic / organ weight / brain / relative to body weight + systemic / organ weight / kidney / absolute + systemic / organ weight / kidney…
[36] = systemic / clinical chemistry / alanine aminotransferase (alt/sgpt) / alanine aminotransferase (alt/sgpt) + systemic / clinical chemistry / …
[37] = group: developmental, developmental / developmental malformation / bone / enlarged fontanel + developmental / developmental malformation / bone / incomplete …
[38] = group: maternal, systemic / in life observation / body weight / body weight gain
[39] = group: maternal, systemic / in life observation / body weight / body weight gain + systemic / in life observation / body weight / body weight + systemic / in…
[40] = group: developmental, developmental / offspring survival late / lactation index / lactation index + developmental / offspring survival late / viability index / …
[41] = group: maternal, reproductive / offspring survival early / dead fetuses / dead fetuses
[42] = group: offspring, developmental / offspring survival late / viability index / viability index + systemic / in life observation / body weight / offspring (pup…
[43] = group: parental, systemic / in life observation / body weight / body weight gain + systemic / organ weight / liver / relative to body weight
[44] = systemic / clinical chemistry / albumin / albumin + systemic / clinical chemistry / calcium / calcium + systemic / clinical chemistry / …
[45] = systemic / clinical chemistry / alkaline phosphatase (alp/alk) / alkaline phosphatase (alp/alk) + systemic / clinical chemistry / calcium / …
[46] = systemic / clinical chemistry / alkaline phosphatase (alp/alk) / alkaline phosphatase (alp/alk) + systemic / organ weight / liver / absolute…
[47] = systemic / clinical chemistry / cholesterol / cholesterol + systemic / clinical chemistry / lipids / phospholipids + systemic / hematology…
[48] = systemic / hematology / platelet / platelet + systemic / clinical chemistry / triglycerides / triglycerides + systemic / clinical chemistry…
[49] = systemic / in life observation / body weight / body weight gain + systemic / pathology microscopic / liver / hypertrophy + systemic / …
[50] = group: developmental, developmental / developmental malformation / bone / full supernumerary
[51] = group: offspring, systemic / in life observation / body weight / offspring (pup) weight
[52] = group: parental, systemic / in life observation / body weight / body weight + systemic / in life observation / food consumption / food consumption + systemic…
[53] = systemic / organ weight / liver / absolute + systemic / organ weight / liver / relative to body weight + systemic / clinical chemistry / …

CC(C)c1nnc2ccc(-c3ocnc3-c3cc(F)ccc3F)cn12
LEL [1, 26]: 30 mg/kg/day | NEL [1, 26]: < 30 mg/kg/day | LOAEL [1, 27]: > 500 mg/kg/day | NOAEL [1, 27]: ≥ 500 mg/kg/day | LOAEL [2]: > 2000 mg/kg/day | NEL [2]: < 250 mg/kg/day | NOAEL [2]: ≥ 2000 mg/kg/day | LEL [3, 28]: 100 mg/kg/day | NEL [3, 28]: < 100 mg/kg/day | LOAEL [3, 29]: > 2000 mg/kg/day | NOAEL [3, 29]: ≥ 2000 mg/kg/day | LEL [4]: 40 mg/kg/day | LOAEL [4]: > 80 mg/kg/day | NEL [4]: 20 mg/kg/day | NOAEL [4]: ≥ 80 mg/kg/day | LEL [5]: 1000 mg/kg/day | LOAEL [5]: > 1000 mg/kg/day | NEL [5]: 300 mg/kg/day | NOAEL [5]: ≥ 1000 mg/kg/day

O=C(c1ccccc1)c1ccccc1 [Benzophenone]
LEL [6]: 35 mg/kg/day | LOAEL [6]: 70 mg/kg/day | NEL [6]: < 35 mg/kg/day | LOAEL ([7]; systemic / in life observation / body weight / body weight + systemic / pathology microscopic / kidney / hyperplasia + systemic / pathology …): 30 mg/kg/day | LEL [7, 30]: 15 mg/kg/day | NEL [7, 30]: < 15 mg/kg/day | LOAEL ([8]; systemic / clinical chemistry / bile acids / bile acids + systemic / clinical chemistry / sorbitol dehydrogenase / sorbitol dehydrogenase + …): 404 mg/kg/day | LEL [8, 31]: 200 mg/kg/day | NEL [8, 31]: < 200 mg/kg/day

Cc1ccn2nc(S(=O)(=O)Nc3c(F)cccc3F)nc2n1 [Flumetsulam]
LOAEL [9, 32]: 500 mg/kg/day | NEL [9, 32]: 20 mg/kg/day | NOAEL [9, 32]: 100 mg/kg/day | LEL ([9]; systemic / organ weight / pituitary gland / relative to body weight): 100 mg/kg/day | NEL ([10]; systemic / organ weight / heart / relative to body weight): 500 mg/kg/day | LEL [10, 33]: 1000 mg/kg/day | LOAEL [10, 33]: > 1000 mg/kg/day | NOAEL [10, 33]: ≥ 1000 mg/kg/day | NEL [11, 34]: 1000 mg/kg/day | NOAEL [11, 34]: 1000 mg/kg/day | LEL [11, 35]: 5000 mg/kg/day | LOAEL [11, 35]: 5000 mg/kg/day | LEL [12]: 1000 mg/kg/day | LOAEL [12]: 1000 mg/kg/day | NEL [12]: 500 mg/kg/day | NOAEL [12]: 500 mg/kg/day | LOAEL [13, 36]: 1000 mg/kg/day | NOAEL [13, 36]: 250 mg/kg/day | NEL ([13]; systemic / hematology / erythrocyte (rbc) count differential / erythrocyte (rbc) + systemic / hematology / hemoglobin (hgb) / hemoglobin (…): 2500 mg/kg/day

CCNS(=O)(=O)C(F)(F)C(F)(F)C(F)(F)C(F)(F)C(F)(F)C(F)(F)C(F)(F)C(F)(F)F [Sulfluramid]
LEL [14, 37]: 13.3 mg/kg/day | LOAEL [14, 37]: 13.3 mg/kg/day | NEL [14, 37]: 3.3 mg/kg/day | NOAEL [14, 37]: 3.3 mg/kg/day | LEL [14, 38]: 3.3 mg/kg/day | LOAEL [14, 38]: 3.3 mg/kg/day | NEL [14, 39]: 0.8 mg/kg/day | NOAEL [14, 39]: 0.8 mg/kg/day | LEL [15]: 2.5 mg/kg/day | LOAEL [15]: 2.5 mg/kg/day | NEL [15]: 0.5 mg/kg/day | NOAEL [15]: 0.5 mg/kg/day | LEL [16, 40]: 0.3 mg/kg/day | LOAEL [16, 40]: 0.3 mg/kg/day | NEL [16, 40]: < 0.3 mg/kg/day | NOAEL [16, 40]: < 0.3 mg/kg/day | LEL [16, 41]: 0.3 mg/kg/day | LOAEL [16, 41]: 0.3 mg/kg/day | NEL [16, 41]: < 0.3 mg/kg/day | NOAEL [16, 41]: < 0.3 mg/kg/day | LEL [17, 42]: 1.34 mg/kg/day | LOAEL [17, 42]: 1.34 mg/kg/day | NEL [17, 42]: 0.45 mg/kg/day | NOAEL [17, 42]: 0.45 mg/kg/day | LEL [17, 43]: 1.34 mg/kg/day | LOAEL [17, 43]: 1.34 mg/kg/day | NEL [17, 43]: 0.45 mg/kg/day | NOAEL [17, 43]: 0.45 mg/kg/day | LOAEL [18, 44]: > 23.2 mg/kg/day | NOAEL [18, 44]: ≥ 23.2 mg/kg/day | LEL ([18]; systemic / organ weight / liver / relative to body weight + systemic / clinical chemistry / calcium / calcium): 2.52 mg/kg/day

CC(C)(C)[C@H](O)/C(=C\c1ccc(Cl)cc1)n1cncn1 [Uniconazole-P]
NEL [19, 45]: 5 mg/kg/day | NOAEL [19, 45]: 5 mg/kg/day | LEL [19, 46]: 20 mg/kg/day | LOAEL [19, 46]: 20 mg/kg/day | LOAEL [20, 47]: 100 mg/kg/day | NOAEL [20, 47]: 10 mg/kg/day | LEL [20, 48]: 3 mg/kg/day | NEL [20, 48]: < 3 mg/kg/day | LOAEL [21, 49]: 39.4 mg/kg/day | NOAEL [21, 49]: 7.78 mg/kg/day | LEL ([21]; systemic / pathology microscopic / liver / hypertrophy + systemic / pathology microscopic / liver / vacuolization): 7.78 mg/kg/day | NEL ([21]; systemic / pathology microscopic / liver / hypertrophy + systemic / pathology microscopic / liver / vacuolization + systemic / in life …): 1.48 mg/kg/day | NEL ([22]; systemic / pathology microscopic / liver / adenoma + systemic / pathology microscopic / liver / adenoma/carcinoma combined + systemic / in …): 225 mg/kg/day | LOAEL ([22]; systemic / pathology microscopic / liver / hypertrophy + systemic / pathology microscopic / liver / inflammation + systemic / pathology …): 225 mg/kg/day | NOAEL ([22]; systemic / pathology microscopic / liver / hypertrophy + systemic / pathology microscopic / liver / necrosis + systemic / pathology …): 30 mg/kg/day | LEL [23, 50]: 25 mg/kg/day | LOAEL [23, 50]: 25 mg/kg/day | NEL [23, 50]: 5 mg/kg/day | NOAEL [23, 50]: 5 mg/kg/day | LEL [23, 38]: 25 mg/kg/day | LOAEL [23, 38]: 25 mg/kg/day | NEL [23, 38]: 5 mg/kg/day | NOAEL [23, 38]: 5 mg/kg/day | LEL [24, 51]: 75 mg/kg/day | LOAEL [24, 51]: 75 mg/kg/day | NEL [24, 51]: 7.5 mg/kg/day | NOAEL [24, 51]: 7.5 mg/kg/day | LOAEL [24, 52]: 75 mg/kg/day | NEL [24, 52]: 0.75 mg/kg/day | NOAEL [24, 52]: 7.5 mg/kg/day | LEL ([24]; group: parental, systemic / organ weight / liver / nos): 7.5 mg/kg/day | NEL ([25]; systemic / clinical chemistry / alkaline phosphatase (alp/alk) / alkaline phosphatase (alp/alk) + systemic / organ weight / thymus / …): 2 mg/kg/day | LOAEL ([25]; systemic / organ weight / liver / absolute + systemic / organ weight / liver / relative to body weight): 20 mg/kg/day | LEL [25, 53]: 20 mg/kg/day | NOAEL [25, 53]: 2 mg/kg/day
